Tested on: B. burgdorferi B31
Experiment: RNA-Seq gene expression profile of B. burgdorferi persisters that survived antibiotic treatment, compared with drug free control
Format: cell-based, Borrelia burgdorferi
Settings: vs drug free control
Procedure: RNA Sequencing (RNA-Seq) was performed to determine the gene expression profile of B. burgdorferi persisters that survived antibiotic treatment using next generation sequencing to shed light on the mechanisms of B. burgdorferi persistence. B. burgdorferi B31 cultures were grown for 5 days to 1×10^7 spirochetes/ml in BSK-H medium followed by treatment with 50 μg/ml doxycycline or 50 μg/ml amoxicillin for 6 days. Triplicate biological samples were used for each group. The total RNA was extracted and ribosomal RNA was removed prior to preparation of cDNA libraries for Illumina sequencing. […] The RNA-Seq data was analyzed by BLAST analysis and mapped to KEGG pathways.

[1] = 50 μg/ml antibiotic for 6 days, more than two-fold change

| Structure (SMILES) | genes down-regulated in treated group (50 μg/ml antibiotic for 6 days) [genes] | genes upregulated in treated group (50 μg/ml antibiotic for 6 days) [genes] | total genes differentially expressed between tolerant persisters and drug free group (50 μg/ml antibiotic for 6 days) [genes] | down-regulated genes identified by more than two-fold change [1] [genes] | up-regulated genes identified by more than two-fold change [1] [genes] | clpP (BB_0757) expression, upregulated fold change in persisters (B31 culture treated with 50 μg/ml antibiotic for 6 days) [fold] |
| --- | --- | --- | --- | --- | --- | --- |
| CC1(C)S[C@@H]2[C@H](NC(=O)[C@H](N)c3ccc(O)cc3)C(=O)N2[C@H]1C(=O)O [amoxicillin, reference compound] | 174 | 342 | 516 |  |  |  |
| C[C@H]1c2cccc(O)c2C(=O)C2=C(O)[C@]3(O)C(=O)C(C(N)=O)=C(O)[C@@H](N(C)C)[C@@H]3[C@@H](O)[C@@H]21 [doxycycline, reference compound] | 340 | 335 | 675 | 33 | 35 | 30 |

— patent publication US20180246095A1, “COMPOSITIONS AND METHODS FOR DIAGNOSING AND TREATING LYME DISEASE” (priority 2015, published 2018)
